Laboratory results taken from patent US9206236B2, “Peptides for treating cancer” (Gene Signal International SA, priority 2010, dated 2015).

How the values were obtained:
[1] = tested on: mTOR; test: mTOR status in HMEC after incubation with peptides (anti-mTor antibody Ser2448); type: cell-based, human
Description: Human EC grown in EGM-2MV (80% confluence) were incubated with the peptides of the invention or vehicle for the indicated time, washed three times in cold PBS and directly lysed in 2 ml of ice-cold lysis buffer (10 mM Tris pH 7.5, 150 mM NaCl, 1 mM PMSF, 0.5 μg/ml leupeptin, 1 μg/ml pepstatin A, and 1 μg/ml aprotinin) by incubation for 30 min at 4° C. Cell lysate were spun at […] for 10 min, insoluble materials were discarded, and protein contents measured by Bradford assay of supernatants were adjusted. Cell lysate (1 ml) was precleared with 25 μl of protein G-plus agarose beads (Santa Cruz) for 30 min, and proteins were then immunoprecipitated by adding 2 μg of the indicated antibody and incubated for 1 hr. The immunocomplex was pulled down with protein G-plus agarose beads and the beads were washed three times with lysis buffer. The immunoprecipitates were separated by NuPAGE® 4-12% Bis-Tris gel electrophoresis under reducing conditions, transferred to PVDF membrane (Novex System, Invitrogen), and the membrane was blocked with 5% (w/v) non-fat milk in TBS containing 0.1% v/v Tween-20 for 1 hr.
The status of mTOR in the HMEC following incubation with peptides GS-0 and GS-1 was investigated.

[2] = Body weight and toxicity of mice bearing NCI-H460 tumors (Example 2); type: in vivo
Description: All experiments were reviewed by the Genopole's institutional animal care and use committee and were performed in accordance with institutional guidelines for animal care. Female BALB/c nu/nu mice (n=30) were used at 5-6 weeks of age. The animals were housed in laminar air-flow cabinets under pathogen-free conditions with a 12 h light/12 h dark schedule, and fed autoclaved standard chow and water ad libitum. […] Tumor cells (10^7 cells in 200 μl of HBSS) were injected subcutaneously into the right flanks of mice. […] At tumor volume about 150 mm3, animals were randomized, and separated into five groups of five animals. Control mice (group 1) were intraperitoneally injected with vehicle (10% DMSO in buffer saline) every day. GS-0 was dissolved in vehicle and intraperitoneally injected (group 2) every day (12 injections). GS-1 was dissolved in vehicle and intraperitoneally injected (group 3) every day (12 injections). Tumor volume and body weight were measured every other day over the treatment period (12 days).

[3] = tested on: NCI-H460 tumors; test: NCI-H460 tumor xenograft in nude mice, tumor volume (Example 3); type: in vivo
Description: H460 cell line has cytology compatible with human Non-Small Cell Lung Cancer (NSCL). Cells were grown in MEM medium containing 10% FCS at 37° C., 5% CO2 humidified atmosphere. The absence of mycoplasms was confirmed by using the PCR Mycoplasma Detection kit (Takara). All experiments were reviewed by the Genopole's institutional animal care and use committee and were performed in accordance with institutional guidelines for animal care. Female BALB/c nu/nu mice (n=30) were used at 5-6 weeks of age. The animals were housed in laminar air-flow cabinets under pathogen-free conditions with a 12 h light/12 h dark schedule, and fed autoclaved standard chow and water ad libitum. The NCI-H460 human NSCL cell line was obtained from American Type Culture Collection (ATCC) were grown in RPMI medium 1640 supplemented with 1 μM sodium pyruvate. Tumor cells (10^7 cells in 200 μl of HBSS) were injected subcutaneously into the right flanks of mice. After engraftment, tumor volume was measured by Vernier callipers, and calculated as described in Balsam A et al. (Balsari A et al. (2004) Eur J Cancer 40: 1275-1281). At tumor volume about 150 mm^3, animals were randomized, and separated into five groups of five animals. Control mice (group 1) were intraperitoneally injected with vehicle (10% DMSO in buffer saline) every day. GS-0 was dissolved in vehicle and intraperitoneally injected (group 2) every day (12 injections). GS-2 was dissolved in vehicle and intraperitoneally injected (group 3) every day (12 injections). Tumor volume and body weight were measured every other day over the treatment period (12 days). GS-2 as well as the control peptide GS-0 were solubilized in DMSO and the resulting solutions were diluted 10 times with phosphate buffer saline (PBS) to obtain a concentration of 1 mg of peptide/ml of 10% DMSO in PBS. At this concentration, all peptides were soluble in 10% DMSO.

[4] = Solubility of peptides in 10% DMSO in PBS; type: physicochemical; details: 1 mg of peptide/ml of 10% DMSO in PBS
Description: GS-1 as well as the control peptide GS-0 were solubilized in DMSO and the resulting solutions were diluted 10 times with phosphate buffer saline (PBS) to obtain a concentration of 1 mg of peptide/ml of 10% DMSO in PBS. At this concentration, all peptides were soluble in 10% DMSO.
GS-2 as well as the control peptide GS-0 were solubilized in DMSO and the resulting solutions were diluted 10 times with phosphate buffer saline (PBS) to obtain a concentration of 1 mg of peptide/ml of 10% DMSO in PBS. At this concentration, all peptides were soluble in 10% DMSO.

Ac-NYICMG-NH2 [GS-0, NYICMG, reference compound]
amounts of mTOR in HMEC relative to vehicle [1]: equivalent amounts of mTOR as cell incubated with vehicle | toxicity and body weight loss during treatment ([2]; 8 mg/kg intraperitoneally every day, 12 injections): No toxicity and no body weight loss | Mean body weight D1 ([2]; Table 1, 8 mg/kg i.p. daily, day 1, in g): 20.91 | Mean body weight D3 ([2]; Table 1, 8 mg/kg i.p. daily, day 3, in g): 21.37 | Mean body weight D5 ([2]; Table 1, 8 mg/kg i.p. daily, day 5, in g): 21.65 | Mean body weight D7 ([2]; Table 1, 8 mg/kg i.p. daily, day 7, in g): 21.81 | Mean body weight D9 ([2]; Table 1, 8 mg/kg i.p. daily, day 9, in g): 22.52 | Mean body weight D11 ([2]; Table 1, 8 mg/kg i.p. daily, day 11, in g): 22.76 | Mean body weight D13 ([2]; Table 1, 8 mg/kg i.p. daily, day 13, in g): 22.36 | influence on the in vivo growth of the tumor NCI-H460 (in words) ([3]; 8 mg/kg i.p. daily for 12 days): no significant influence | mean tumor volume at the end of treatment ([3]; 8 mg/kg i.p. daily for 12 days, n=5): 1114.83 ± 534.50 mm^3 | Mean tumor volume D1 ([3]; Table 4, 8 mg/kg i.p. daily, day 1): 123 mm³ | Mean tumor volume D3 ([3]; Table 4, 8 mg/kg i.p. daily, day 3): 233 mm³ | Mean tumor volume D5 ([3]; Table 4, 8 mg/kg i.p. daily, day 5): 335 mm³ | Mean tumor volume D7 ([3]; Table 4, 8 mg/kg i.p. daily, day 7): 402 mm³ | Mean tumor volume D9 ([3]; Table 4, 8 mg/kg i.p. daily, day 9): 553 mm³ | Mean tumor volume D11 ([3]; Table 4, 8 mg/kg i.p. daily, day 11): 751 mm³ | Mean tumor volume D13 ([3]; Table 4, 8 mg/kg i.p. daily, day 13): 1110 mm³ | solubility in 10% DMSO [4]: soluble
